These results are taken from the NIST ThermoML archive (doi:10.1021/je4004299).

For this data set the following is noted: for surface tension liquid-gas: Pendant drop shape; for mass density: 101.33 kPa, Liquid, Vibrating tube method.

Numbers after ± are expanded uncertainties.

A word on the surface tension liquid-gas: it is the force per length acting along the surface. What is called mass density is the mass of a sample divided by its volume. As to `CCCCn1cc[n+](C)c1.NCC(=O)[O-]` [1-butyl-3-methylimidazolium glycinate], the surface tension liquid-gas (298.15 K) amounted to 54.5 ± 0.6 mN/m; the surface tension liquid-gas (303.15 K) is 53.6 ± 0.6 mN/m; the surface tension liquid-gas (313.15 K) was found to be 51.9 ± 0.6 mN/m; the surface tension liquid-gas (323.15 K) is listed as 50.5 ± 0.5 mN/m; the surface tension liquid-gas (333.15 K) is recorded as 48.4 ± 0.5 mN/m; the surface tension liquid-gas (343.15 K) amounted to 46.8 ± 0.5 mN/m. In addition, the mass density was 1128.47 ± 8 kg/m3 (298.15 K); 1125.91 ± 8 kg/m3 (303.15 K); 1119.35 ± 8 kg/m3 (313.15 K); 1112.78 ± 8 kg/m3 (323.15 K); 1107.1 ± 8 kg/m3 (333.15 K); 1100.5 ± 8 kg/m3 (343.15 K).
In the case of `CCCCn1cc[n+](C)c1.O=C([O-])CO` [1-butyl-3-methylimidazolium glycolate], the surface tension liquid-gas is, setting by setting: (298.15 K) 49.7 ± 0.5 mN/m; (303.15 K) 49.2 ± 0.5 mN/m; (313.15 K) 48.4 ± 0.5 mN/m; (323.15 K) 47.6 ± 0.5 mN/m; (333.15 K) 46.8 ± 0.5 mN/m; (343.15 K) 46.1 ± 0.5 mN/m. Besides, the mass density (298.15 K) is listed as 1129.32 ± 8 kg/m3; the mass density (303.15 K) turned out to be 1125.95 ± 8 kg/m3; the mass density (313.15 K) amounted to 1118.97 ± 8 kg/m3; the mass density (323.15 K) stood at 1111.78 ± 8 kg/m3; the mass density (333.15 K) was 1104.3 ± 8 kg/m3; the mass density (343.15 K) amounted to 1097.73 ± 8 kg/m3.
Regarding `CC(O)C(=O)[O-].CCCCn1cc[n+](C)c1` [1-butyl-3-methylimidazolium lactate], the surface tension liquid-gas worked out at 42.7 ± 0.5 mN/m (298.15 K); 42.3 ± 0.5 mN/m (303.15 K); 41.9 ± 0.5 mN/m (313.15 K); 41.3 ± 0.5 mN/m (323.15 K); 40.6 ± 0.5 mN/m (333.15 K); 40 ± 0.5 mN/m (343.15 K). Further, the mass density came out at 1100.2 ± 8 kg/m3 (298.15 K); 1096.63 ± 8 kg/m3 (303.15 K); 1089.79 ± 8 kg/m3 (313.15 K); 1083.17 ± 8 kg/m3 (323.15 K); 1076.42 ± 8 kg/m3 (333.15 K); 1069.75 ± 8 kg/m3 (343.15 K).
In the case of `CCCC[n+]1ccn(C)c1.O=C([O-])c1ccccc1` [3-butyl-1-methylimidazolium benzoate], the surface tension liquid-gas (298.15 K) is recorded as 40.1 ± 0.5 mN/m; the surface tension liquid-gas (303.15 K) came to 39.7 ± 0.5 mN/m; the surface tension liquid-gas (313.15 K) came to 39.1 ± 0.4 mN/m; the surface tension liquid-gas (323.15 K) is on record as 38.7 ± 0.4 mN/m; the surface tension liquid-gas (333.15 K) was 38.3 ± 0.4 mN/m; the surface tension liquid-gas (343.15 K) worked out at 37.8 ± 0.4 mN/m. For the same compound, the mass density came to 1105.25 ± 8 kg/m3 (298.15 K); 1102.19 ± 8 kg/m3 (303.15 K); 1095.87 ± 8 kg/m3 (313.15 K); 1089.66 ± 8 kg/m3 (323.15 K); 1083.46 ± 8 kg/m3 (333.15 K); 1077.22 ± 8 kg/m3 (343.15 K).
